Data as given in US20090130763A1, “Method of Controlling Degradation of Protein by Tetracycline Antibiotic” (priority 2005, published 2009).
Residues, ends and D or L forms follow the SMILES beside them. *: point of attachment. Cbz = O=C(OCc1ccccc1)*

System: proteasome
Assay: Incubation of TetR-EGFP-expressed cells with proteasome inhibitor, fluorescence by flow cytometer
Conditions: variant TetR-EGFP-expressed cells, 100 μg/ml, 12 hours (FIG. 1C)
Experimental: The cells were treated with trypsin and then recovered. Fluorescence-positive cell rates and the intensity of fluorescence per cell were analyzed by a flow cytometer (BD, FACSCalibur).
These cells were incubated for 12 hours in the presence of 100 μg/ml of proteasome inhibitor MG132.

CC(C)C[C@@H](C=O)NC(=O)[C@H](CC(C)C)NC(=O)[C@H](CC(C)C)NC(=O)OCc1ccccc1 [MG132] (Cbz-Leu-Leu-Leu-aldehyde)
change in fluorescence: marked increase
